Experimental data reported in patent US20150374709A1, “TETRA-SUBSTITUTED NDGA DERIVATIVES VIA ETHER BONDS AND CARBAMATE BONDS AND THEIR SYNTHESIS AND PHARMACEUTICAL USE” (ERIMOS PHARMACEUTICALS LLC, priority 2006, published 2015).

Columns and labels:
[1] = system: NSCLC cell lines; assay: NCI DTP human tumor cell line screen, NSCLC panel; assay type: cell-based; conditions: NSCLC (8 cell lines)
Source text: (§1) The United States National Cancer Institute (NCI) provides a developmental therapeutics program (DTP) (http://dtp.nci.nih.gov/branches/btb/ivelsp.html) to screen submitted substances in support of cancer drug discovery. The In Vitro Cell Line Screening Project (IVCLSP) is a dedicated service providing direct support to the DTP anticancer drug discovery program and is designed to screen up to 3,000 compounds per year for potential anticancer activity. The operation of this screen utilizes 60 different human tumor cell lines, representing leukemia, melanoma and cancers of the lung, colon, brain, ovary, breast, prostate, and kidney. The aim is to prioritize for farther evaluation, synthetic compounds or natural product samples showing selective growth inhibition or cell killing of particular tumor cell lines. This screen is unique in that the complexity of a 60 cell line dose response produced by a given compound results in a biological response pattern which can be utilized in pattern recognition algorithms (COMPARE program. See: http://dtp.nci.nih.gov/docs/compare/compare.html). Using these algorithms, it is possible to assign a putative mechanism of action to a test compound, or to determine that the response pattern is unique and not similar to that of any of the standard prototype compounds included in the NCI database. […]

[2] = system: Caco-2 cell monolayers; assay: Caco-2 monolayer bidirectional permeability; assay type: in vitro ADME, human; conditions: human, Caco-2, 90 min, 1 μM, pH 7.4
Description: (§2) Permeability studies were conducted by an outside contractor on behalf of the assignee of the present invention and application to determine the permeability of Compound A through Caco-2 monolayers. An important factor of oral bioavailability is the ability of e compound to be absorbed in the small intestine. Measurement of drug apparent permeability (Papp) through cell monolayers is well correlated with human intestinal absorption, and several mammalian cell lines, including Caco-2, LLC-PK1 and MDCK, are appropriate for this measurement (Artursson, P. et al., Correlation between oral drug absorption in humans and apparent drug permeability coefficients in human intestinal epithelial (Caco-2) cells. Biochem Biophys Res Comm 175:880-885 (1991); Stewart. B. H., et al., Comparison of intestinal permeabilities in multiple in vitro and in situ models: relationship to absorption in humans. Pharm Res 12:693 (1995)). P-Glycoprotein (P-gp, encoded by MDR1) is a member of the ABC transporter super family and is expressed in the human intestine, liver and other tissues. Intestinal expression of P-gp may affect the oral bioavailability of drug molecules that are substrates for this transporter. Interaction with P-gp can be studied using direct assays of drug transport in polarized cell systems such as Caco-2 cell monolayers, and human P-gp cDNA-expressing LLC-PK1 and MDCK cell monolayers. Caco-2 cells (human adenocarcinoma colonic cell line Caco-2, ATCC Cat. No. […] The cells were cultured for 21-25 days with media replacement every 3-4 days. Monolayer integrity was evaluated by pre-experimental trans-epithelial electrical resistance (TEER) measurements and post-experimental lucifer yellow A to B flux determinations. […] Receiver solution was prepared by adding 1% DMSO to transport buffer. The test solution was of Compound A in DMSO in transport buffer at a final DMSO concentration of 1%. […] The donor and receiver solutions were added to the apical or basolateral chambers of the monolayers (depending on the direction of transport to be measured). The monolayers were incubated on an orbital shaker (50 rpm) at 37° C., with ambient humidity and CO2. After 90 minutes, samples from the donor and receiver chambers were removed for analysis. […] Duplicate monolayers were used for each incubation. Samples were analyzed by LC/MS/MS using peak area ratios to an internal standard. Test article concentrations were calculated based on the peak area ratios obtained for appropriate dilutions of the donor solution containing the test article at the nominal concentration in transport buffer. Samples were diluted as appropriate to ensure that the response was within the linear range of the mass spec detector. Comparator and control samples were analyzed by liquid scintillation counting. Lucifer yellow concentrations were determined using a fluorescence plate reader.

[3] = Caco-2 monolayer bidirectional permeability; assay type: in vitro ADME, human; conditions: human
Description: as §2

[4] = system: Prostate cell lines; assay: NCI DTP human tumor cell line screen, prostate panel; assay type: cell-based; conditions: Prostate (2 cell lines)
Source text: as §1

What does the source list for C[C@H](Cc1ccc(OCCCN2CCCCC2)c(OCCCN2CCCCC2)c1)[C@@H](C)Cc1ccc(OCCCN2CCCCC2)c(OCCCN2CCCCC2)c1 [Compound A, 1,4-bis{3,4-bis[3-(piperidin-1-yl)propoxy]phenyl}-2,3-dimethyl-(2R,3S)-butane]?
Mean Growth Percent at 10 μM [1]: −90.92%; Papp A to B [2]: 9.61 ×10⁻⁶ cm/s; Papp B to A [2]: 1.72 ×10⁻⁶ cm/s; Polarization Ratio [B-A/A-B] [2]: 0.18; Papp A→B at 90 min, 1 μM ([3]; Caco-2, pH 7.4, BCS permeability class): 0.514 to 14.2 ×10⁻⁶ cm/s; Papp A→B at 90 min, 1 μM ([3]; Caco-2, pH 7.4, Papp A to B): 9.75 ×10⁻⁶ cm/s; Papp B→A at 90 min, 1 μM ([3]; Caco-2, pH 7.4, Papp B to A): 1.74 ×10⁻⁶ cm/s; efflux ratio at 90 min, 1 μM ([3]; Caco-2, pH 7.4, Polarization Ratio [B-A/A-B]): 0.1 to 0.2; Mean Growth Percent at 10 μM [4]: −95.47%
